The source of these data is patent US20240041805A1, “PHARMACEUTICAL COMPOSITIONS OF NICLOSAMIDE AND A PROTEIN” (priority 2020, published 2024).

Converted amounts (≈) assume the structure as drawn. “And” between values parts separate entries of the source, which are not always exact repeats. Equal values may be shown once.

The test system of data set [1] is MERS-CoV. Kind of data set: microbe, parasite or virus in culture. The class given is cell-based. The conditions noted are these: Middle East respiratory syndrome-related coronavirus, Vero C1008, read-out: EC50 dose for MERS-CoV.
Data set [2] has as its system SARS-CoV-2. In words: microbe, parasite or virus in culture. The conditions noted are these: Severe acute respiratory syndrome coronavirus 2, Vero C1008; Vero E6 cells, observed CPE, dose based on NIC content. The class given is cell-based.
Data set [3] has as its system SARS-CoV-2. Format: cell-based.
Data set [4] in a line: Size exclusion chromatography of hLYS aggregation before and after spray drying and nebulization. Format: physicochemical. The settings on record: not nebulized. On the technique in general: In gel filtration, larger molecules generally elute earlier.
In data set [5] the test system is methicillin-resistant S. aureus strain Mu50. Kind of data set: Resazurin-based microbroth dilution assay. The conditions noted are these: S. aureus Mu50, hLYS alone. The class given is cell-based. A general note: The colour change of resazurin is a common sign of viable cells or microbes.
The nature of data set [6]: FTIR-ATR secondary structure analysis of hLYS. Format: physicochemical.
The nature of data set [7]: Particle size distribution by laser diffraction (dry powder and reconstituted suspension). The settings on record: after air jet milling (micronized).

As usually defined, the EC50 is the midpoint of the concentration-response curve. In the case of `O=C(Nc1ccc([N+](=O)[O-])cc1Cl)c1cc(Cl)ccc1O` [NIC-M, 5-Chloro-N-(2-chloro-4-nitrophenyl)salicylamide], the results for the concentration for a half-maximal effect (EC50) in data set [1] and in data set [2] were 0.016 µg/mL (≈ 0.0489 µM) and 0.03 µg/mL (≈ 0.0917 µM), respectively. Moreover, the “inhibitory activity against SARS-CoV-2 compared to solubilized NIC” value in data set [3] (NIC dose of 0.125 μg/mL, quantified viral particles) is given as “significantly improved activity compared to solubilized NIC”.

On to “hLYS: recombinant human lysozyme (InVitria)”, for which, in data set [4], the Fragment was found to be 0.7%, the HMW was 17.2% and the Monomer is recorded as 82.1%. The inhibitory activity entry in data set [5] was “No inhibitory activity”. Moreover, the “Anti-parallel β-sheet” value in data set [6] (1618-1625 cm^−1) is given as 21.7%. In data set [6] (1633-1637 cm^−1), the “Parallel β-sheet” value is 0.7%. Moreover, the α-helix in data set [6] (1653 cm^−1) was determined as 57.6%. The same compound registered a Turns in data set [6] (1678-1680 cm^−1) of 20.2%. Also, the “activity against SARS-CoV-2” value in data set [3] (hLYS alone) is listed as “appeared to exhibit activity against SARS-CoV-2”.

`O=C(Nc1ccc([N+](=O)[O-])cc1Cl)c1cc(Cl)ccc1O` [niclosamide, 5-Chloro-N-(2-chloro-4-nitrophenyl)salicylamide]: in data set [7], the X50 diameter worked out at 2.2 μm; the X90 diameter is 4.2 μm and 4.1 μm.
